Laboratory results published in ChEMBL document CHEMBL3588744, “Structure-Based Optimization of Naphthyridones into Potent ATAD2 Bromodomain Inhibitors” (J Med Chem, 2015).
≈ marks a conversion by molar mass, not a printed value.

How the values were obtained:
physchem = conditions: phosphate buffered saline, pH 7.4, solubility
Description: Solubility of the compound in phosphate buffered saline at pH 7.4 after 1 hr by CLND method

[1] = biological target: Bromodomain-containing protein 4 (Homo sapiens, UniProt O60885, Y390A)
[2] = biological target: T1, ATPase family AAA domain-containing protein 2 (Homo sapiens, UniProt Q6PL18)
T1 sequence (Q6PL18 whole entry): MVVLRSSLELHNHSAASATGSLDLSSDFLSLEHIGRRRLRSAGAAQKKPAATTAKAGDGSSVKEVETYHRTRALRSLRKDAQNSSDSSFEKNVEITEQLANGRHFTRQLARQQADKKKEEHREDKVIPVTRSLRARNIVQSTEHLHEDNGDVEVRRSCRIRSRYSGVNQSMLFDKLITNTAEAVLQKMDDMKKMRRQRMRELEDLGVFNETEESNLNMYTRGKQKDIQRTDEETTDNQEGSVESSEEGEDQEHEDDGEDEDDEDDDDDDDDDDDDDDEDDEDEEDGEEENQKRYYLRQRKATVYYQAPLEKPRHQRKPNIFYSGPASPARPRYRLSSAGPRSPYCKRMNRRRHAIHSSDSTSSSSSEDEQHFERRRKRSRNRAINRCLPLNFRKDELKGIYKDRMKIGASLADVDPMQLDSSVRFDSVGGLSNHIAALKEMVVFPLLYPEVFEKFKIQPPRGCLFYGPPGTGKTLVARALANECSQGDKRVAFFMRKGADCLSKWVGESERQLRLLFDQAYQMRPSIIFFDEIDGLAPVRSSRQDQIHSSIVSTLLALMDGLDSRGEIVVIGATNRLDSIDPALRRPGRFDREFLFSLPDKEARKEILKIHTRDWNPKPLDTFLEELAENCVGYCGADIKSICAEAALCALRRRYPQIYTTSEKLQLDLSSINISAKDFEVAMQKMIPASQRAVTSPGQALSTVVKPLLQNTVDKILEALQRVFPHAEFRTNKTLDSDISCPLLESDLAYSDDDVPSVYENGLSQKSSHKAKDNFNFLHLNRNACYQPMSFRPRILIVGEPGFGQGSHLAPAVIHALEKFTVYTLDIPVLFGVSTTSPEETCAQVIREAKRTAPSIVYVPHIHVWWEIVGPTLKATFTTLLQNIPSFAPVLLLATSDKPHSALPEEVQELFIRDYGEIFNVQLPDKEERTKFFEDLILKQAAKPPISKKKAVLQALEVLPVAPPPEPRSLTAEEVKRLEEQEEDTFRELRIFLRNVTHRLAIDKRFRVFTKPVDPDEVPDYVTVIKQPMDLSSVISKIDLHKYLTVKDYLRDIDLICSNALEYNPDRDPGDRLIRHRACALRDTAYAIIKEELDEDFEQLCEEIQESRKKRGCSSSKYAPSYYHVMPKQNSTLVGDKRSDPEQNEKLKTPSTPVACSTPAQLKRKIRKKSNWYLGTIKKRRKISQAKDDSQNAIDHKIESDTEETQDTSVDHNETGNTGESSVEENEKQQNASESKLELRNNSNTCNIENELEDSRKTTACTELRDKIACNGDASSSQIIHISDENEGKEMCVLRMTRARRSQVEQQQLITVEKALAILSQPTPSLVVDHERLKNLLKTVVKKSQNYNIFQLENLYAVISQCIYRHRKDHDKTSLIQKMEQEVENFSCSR

[3] = biological target: T1, ATPase family AAA domain-containing protein 2; remark: listed apart in the source
Description: Displacement of histone H4 peptide from FLAG-6His-Tev-ATAD2 (981 to 1121) (unknown origin) expressed in Escherichia coli BL21 (DE3) after 30 mins by TR-FRET analysis relative to control

[4] = Permeability across phosphatidyl choline membrane at pH 7.4 after 3 hrs by HPLC with UV detection method; assay type: ADME; conditions: not told, read-out: permeability
[5] = Distribution coefficient, log D of the compound at pH 7.4 by chromatographic method; assay type: physicochemical; conditions: octanol/water

SMILES | solubility kinetic at 1 h (physchem) | IC50 [1] | IC50 [2] | IC50 [3] | Papp at 3 h [4] | chromatographic logD [5] | logD [5]
Cc1cc2c(-c3cccnc3)cnc(N[C@@H]3CCNC[C@H]3OCC3CCOCC3)c2[nH]c1=O | ≥ 465 µM | 6.31 µM | 0.2 µM | 0.251 µM | < 0.3 ×10⁻⁶ cm/s | – | –
Cc1cc2c(-c3cccnc3)cnc(N[C@@H]3CCNC[C@H]3OCC3CCS(=O)(=O)CC3)c2[nH]c1=O | ≥ 315 µM | 10 µM | 0.1 µM | 0.126 µM | < 0.3 ×10⁻⁶ cm/s | – | –
Cc1cncc(-c2cnc(N[C@@H]3CCNC[C@H]3OCC3CCOCC3)c3[nH]c(=O)c(C)cc23)c1 | 254 µM (≈ 118 µg/mL) | 10 µM | 0.251 µM | 0.316 µM | 3.25 ×10⁻⁶ cm/s | – | –
COc1cncc(-c2cnc(N[C@@H]3CCNC[C@H]3OCC3CCOCC3)c3[nH]c(=O)c(C)cc23)c1 | ≥ 418 µM | 7.94 µM | 0.316 µM | 0.251 µM | 3.35 ×10⁻⁶ cm/s | – | –
COc1cncc(-c2cnc(N[C@@H]3CCNC[C@H]3OCC3CCS(=O)(=O)CC3)c3[nH]c(=O)c(C)cc23)c1 | ≥ 269 µM | 7.94 µM | 0.1 µM | 0.126 µM | < 0.3 ×10⁻⁶ cm/s | – | –
Cc1cc2c(-c3cncnc3)cnc(N[C@@H]3CCNC[C@H]3OCC3CCOCC3)c2[nH]c1=O | ≥ 414 µM | 50.1 µM | 0.794 µM | 1 µM | < 0.3 ×10⁻⁶ cm/s | – | –
Cc1cc2ccnc(N[C@H]3CCNC[C@@H]3OCC3CCCCC3)c2[nH]c1=O | 140 µM (≈ 51.9 µg/mL) | 12.6 µM | – | – | – | 3.3 | –
Cc1cc2ccnc(N[C@@H]3CCNC[C@H]3OCC3CCCCC3)c2[nH]c1=O | – | 3.98 µM | – | – | 13 ×10⁻⁶ cm/s | – | –
Cc1cncc(-c2cnc(N[C@H]3CCNC[C@@H]3OCC3CCCCC3)c3[nH]c(=O)c(C)cc23)c1 | 196 µM (≈ 90.5 µg/mL) | – | – | – | – | 4.2 | –
Cc1cc2c(-c3cncc(N)c3)cnc(N[C@@H]3CCNC[C@H]3OCC3CCCCC3)c2[nH]c1=O | 494 µM (≈ 229 µg/mL) | – | – | – | – | 2.2 | –
Cc1cc2ccnc(N[C@@H]3CCNC[C@H]3OCC3CCOCC3)c2[nH]c1=O | – | – | – | – | < 1 ×10⁻⁶ cm/s | – | 1.5
Cc1cc2ccnc(N[C@H]3CCNC[C@@H]3OCC3CCOCC3)c2[nH]c1=O | ≥ 352 µM | 12.6 µM | – | – | – | 1.5 | –
Cc1cc2ccnc(N[C@@H]3CCNC[C@H]3OCC3CCS(=O)(=O)CC3)c2[nH]c1=O | – | 12.6 µM | – | – | < 0.65 ×10⁻⁶ cm/s | – | –
Cc1cc2ccnc(N[C@H]3CCNC[C@@H]3OCC3CCS(=O)(=O)CC3)c2[nH]c1=O | ≥ 531 µM | 5.01 µM | – | – | – | 1.1 | –
CO[C@@H]1CNCC[C@H]1Nc1nccc2cc(C)c(=O)[nH]c12 | ≥ 306 µM | 6.31 µM | – | 10 µM | – | 0.9 | –
Cc1cncc(-c2cnc(N[C@@H]3CCNC[C@H]3OC[C@H]3C[C@@H](C)S(=O)(=O)[C@@H](C)C3)c3[nH]c(=O)c(C)cc23)c1 | 30 µM (≈ 16.2 µg/mL) | 25.1 µM | 0.0631 µM | 0.1 µM | < 0.3 ×10⁻⁶ cm/s | – | –
CCc1cc2c(-c3cncc(C)c3)cnc(N[C@@H]3CCNC[C@H]3OCC3CCS(=O)(=O)CC3)c2[nH]c1=O | 323 µM (≈ 170 µg/mL) | 10 µM | 0.0501 µM | 0.0794 µM | < 0.3 ×10⁻⁶ cm/s | – | –
Cc1cc2ccnc(N[C@@H]3CCNC[C@H]3OCCC3CCOCC3)c2[nH]c1=O (racemic) | ≥ 327 µM | 25.1 µM | – | – | – | 1.5 | –
Cc1cc2ccnc(N[C@@H]3CCNC[C@H]3OCC3CCCCC3)c2[nH]c1=O (racemic) | 285 µM (≈ 106 µg/mL) | 5.01 µM | – | – | – | 3.3 | –
CC(=O)N1CCC(CO[C@@H]2CNCC[C@H]2Nc2nccc3cc(C)c(=O)[nH]c23)CC1 (racemic) | ≥ 392 µM | 10 µM | – | 7.94 µM | – | 1.2 | –
Cc1cc2ccnc(N[C@@H]3CCNC[C@H]3OC[C@H]3CC[C@H](O)CC3)c2[nH]c1=O (racemic) | ≥ 323 µM | 12.6 µM | – | 5.01 µM | – | 0.7 | –
Cc1cc2ccnc(N[C@@H]3CCNC[C@H]3OCC3CCOCC3)c2[nH]c1=O (racemic) | 298 µM (≈ 111 µg/mL) | 10 µM | – | – | – | 1.7 | –
Cc1cc2ccnc(N[C@@H]3CCNC[C@H]3OCC3CCS(=O)(=O)CC3)c2[nH]c1=O (racemic) | ≥ 309 µM | 6.31 µM | – | – | – | 1 | –
Cc1cc2ccnc(N[C@@H]3CCNC[C@H]3OC[C@@H]3CCS(=O)(=O)C3)c2[nH]c1=O (racemic) | ≥ 328 µM | 12.6 µM | – | 5.01 µM | – | 1 | –
Cc1cc2ccnc(N[C@@H]3CCNC[C@H]3OC(C)C)c2[nH]c1=O (racemic) | 207 µM (≈ 65.5 µg/mL) | 25.1 µM | – | 63.1 µM | – | 1.8 | –
CCCO[C@@H]1CNCC[C@H]1Nc1nccc2cc(C)c(=O)[nH]c12 (racemic) | ≥ 280 µM | 6.31 µM | – | 25.1 µM | – | 1.8 | –
Cc1cc2ccnc(N[C@@H]3CCNC[C@H]3OCC(C)C)c2[nH]c1=O (racemic) | ≥ 290 µM | 6.31 µM | – | – | – | 2.3 | –
Cc1cc2ccnc(N[C@@H]3CCNC[C@H]3OCC3CCCC3)c2[nH]c1=O (racemic) | ≥ 275 µM | 10 µM | – | 7.94 µM | – | 3.1 | –
Cc1cc2ccnc(N[C@@H]3CCNC[C@H]3OCC3CCCCCC3)c2[nH]c1=O (racemic) | ≥ 316 µM | 5.01 µM | – | 2 µM | – | 4 | –
Cc1cncc(-c2ccc(N[C@@H]3CCNC[C@H]3OCC3CCS(=O)(=O)CC3)c3[nH]c(=O)c(C)cc23)c1 (racemic) | 217 µM (≈ 111 µg/mL) | – | – | – | < 0.3 ×10⁻⁶ cm/s | – | –
